Experimental data taken from the supplement of paper PMC10307832.

Legend:
Experiment in all cases: relative viability (nuclei count vs DMSO), 5 days (fraction); higher = more cells survive
[1] = compound: Cc1ccc(C(=O)Nc2ccc(CN3CCN(C)CC3)c(C(F)(F)F)c2)cc1C#Cc1cnc2cccnn12 [Ponatinib] + C[C@]1(O)C[C@@H](c2nc(-c3ccc4ccc(-c5ccccc5)nc4c3)c3c(N)nccn32)C1 [Linsitinib] (partner 1 µM)
Outline: (§1)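 Lung cancer cell lines were seeded in 1536-well plates and dosed by pin tool the next day, with either a single drug or a fixed anchor-drug dose combined with five library-drug doses (not always all listed) spaced in √10 steps. Five days later, one step fixed the cells and stained their nuclei (final 0.05% Triton X-100, 1% formaldehyde, 1 ug/ml Hoechst), and nuclei were counted on 4× images. Relative viability is the nuclei count in treated wells divided by the count in vehicle wells, and each value is the median of duplicate plates.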

[2] = compound: Cc1ccc(Nc2nccc(N(C)c3ccc4c(C)n(C)nc4c3)n2)cc1S(N)(=O)=O [Pazopanib] + C[C@@H](Oc1cc(-c2cnn(C3CCNCC3)c2)cnc1N)c1c(Cl)ccc(F)c1Cl [Crizotinib] (partner 1 µM)
Outline: as §1

[3] = compound: Cc1ccc(Nc2nccc(N(C)c3ccc4c(C)n(C)nc4c3)n2)cc1S(N)(=O)=O [Pazopanib] + Nc1nc2[nH]cc(CCc3ccc(C(=O)N[C@@H](CCC(=O)O)C(=O)O)cc3)c2c(=O)[nH]1 [Pemetrexed] (partner 0.2 µM)
Outline: as §1

[4] = compound: Cc1ccc(Nc2nccc(N(C)c3ccc4c(C)n(C)nc4c3)n2)cc1S(N)(=O)=O [Pazopanib] + O=C(c1cc(Cc2n[nH]c(=O)c3ccccc23)ccc1F)N1CCN(C(=O)C2CC2)CC1 [Olaparib] (partner 8 µM)
Outline: as §1

Cell Line | relative viability ([1]; first compound 0.002 µM) | relative viability ([1]; first compound 0.006325 µM) | relative viability ([1]; first compound 0.06325 µM) | relative viability ([1]; first compound 0.2 µM) | relative viability ([2]; first compound 0.01 µM) | relative viability ([2]; first compound 0.03162 µM) | relative viability ([2]; first compound 0.1 µM) | relative viability ([2]; first compound 0.3162 µM) | relative viability ([2]; first compound 1 µM) | relative viability ([3]; first compound 0.01 µM) | relative viability ([3]; first compound 0.03162 µM) | relative viability ([3]; first compound 0.1 µM) | relative viability ([3]; first compound 0.3162 µM) | relative viability ([3]; first compound 1 µM) | relative viability ([4]; first compound 0.01 µM) | relative viability ([4]; first compound 0.03162 µM) | relative viability ([4]; first compound 0.1 µM) | relative viability ([4]; first compound 0.3162 µM) | relative viability ([4]; first compound 1 µM)
NCI-H1975 | 0.876 | 0.867 | 0.99 | 1.01 | 0.888 | 1.02 | 0.991 | 0.964 | 0.926 | 0.294 | 0.296 | 0.285 | 0.299 | 0.258 | 0.76 | 0.829 | 0.775 | 0.785 | 0.756
CAL-12T | 0.791 | 0.773 | 1.12 | 0.899 | 0.685 | 0.676 | 0.726 | 0.6 | 0.675 | 1.13 | 1.3 | 1.37 | 1.08 | 1.26 | 0.854 | 0.783 | 0.694 | 0.74 | 0.707
HCC-44 | 0.657 | 0.71 | 0.744 | 0.683 | 0.839 | 0.779 | 0.86 | 0.795 | 0.823 | 0.697 | 0.637 | 0.605 | 0.62 | 0.616 | 0.991 | 0.995 | 1.02 | 0.995 | 1
NCI-H2170 |  |  |  |  | 1.21 | 1.32 | 1.26 | 1.15 | 1.14 | 0.258 | 0.307 | 0.264 | 0.277 | 0.258 | 0.669 | 0.561 | 0.693 | 0.547 | 0.56
NCI-H1703 | 0.641 | 0.827 | 0.364 | 0.25 | 0.587 | 0.628 | 0.261 | 0.215 | 0.221 |  |  |  |  |  | 0.465 |  | 0.223 | 0.244 | 0.194
Calu-6 | 0.956 | 0.964 | 0.932 | 0.747 | 0.853 | 0.821 | 0.81 | 0.764 | 0.762 |  |  |  |  |  | 0.601 | 0.559 | 0.589 | 0.579 | 0.5
EBC-1 | 0.857 | 0.983 | 0.985 | 0.927 | 0.224 | 0.202 | 0.197 | 0.184 | 0.187 |  |  |  |  |  | 0.696 | 0.754 | 0.696 | 0.751 | 0.752
IA-LM | 0.538 | 0.512 | 0.529 | 0.535 | 0.93 |  | 0.938 | 0.843 | 0.659 |  |  |  |  |  | 0.719 | 0.909 | 0.925 | 0.774 | 0.658
ChaGo-K-1 |  |  |  |  | 1.18 | 1.19 | 0.997 | 1.23 | 1.06 | 0.267 | 0.256 | 0.268 | 0.257 | 0.252 | 0.473 | 0.447 | 0.413 | 0.413 | 0.357
